According to US20230381170A1, “METHOD FOR TREATING ALS/FTD THROUGH DEGRADATION OF RNA REPEAT EXPANSION” (University of Florida Research Foundation, Incorporated, priority 2020, published 2023):

How the values were obtained:
[1] = system: C9orf72 intron 1 harboring r(G4C2)exp; assay: C9orf72 intron 1 RT-qPCR in patient-derived LCLs; type: cell-based, human; conditions: disease-affected LCLs
Experimental: Measuring Levels of C9orf72 and C9orf72 Variants by RT-qPCR. LCLs were seeded in 6-well plate (˜10^6 cells in 2 mL of growth medium) and incubated overnight at 37° C. Cells were then treated with various concentrations of compound for 24 h or with G4C2-ASO and Control-ASO (100 nM), delivered by transfection with Lipofectamine RNAiMax. RNA was extracted as described above and the expression of C9orf72 variants was determined by RT-qPCR. […] For compound treatment well, medium change was performed with fresh compound every 3-4 days. RNA was extracted as described above and the expression of C9orf72 variants was determined by RT-qPCR.

[2] = system: C9orf72 intron 1; assay: C9orf72 intron 1 RT-qPCR in iPSC lines from healthy donors; type: cell-based, human
Experimental: iPSCs were treated for 4 days in Matrigel (356234, Corning) coated plates with mTeSR™1 feeder-free medium ([…] Technologies; Catalog #85850). Cells were treated in 6-well plates on day 1 and 3 with compounds diluted in 0.1% final DMSO.
Measuring Levels of C9orf72 and C9orf72 Variants by RT-qPCR. LCLs were seeded in 6-well plate (˜10^6 cells in 2 mL of growth medium) and incubated overnight at 37° C. Cells were then treated with various concentrations of compound for 24 h or with G4C2-ASO and Control-ASO (100 nM), delivered by transfection with Lipofectamine RNAiMax. RNA was extracted as described above and the expression of C9orf72 variants was determined by RT-qPCR. For iPSC and iPSC-derived motor neuron cell line, the cells were seeded into Matrigel-coated 6-well plate to ˜60% confluence before treated with 3 μM C9orf72-ASO or Control-ASO and various concentrations of compound for 1 to 2 weeks. For compound treatment well, medium change was performed with fresh compound every 3-4 days. RNA was extracted as described above and the expression of C9orf72 variants was determined by RT-qPCR.

[3] = system: r(G4C2)exp-containing nuclear foci; assay: RNA FISH of foci in brain of +/+PWR500 mice; type: in vivo, mouse; conditions: compared to vehicle
Experimental: Therapeutic Efficacy in a c9ALS/FD mouse model. All animal studies were completed as approved by the Scripps Florida Institutional Animal Care and Use Committee. A total of 24 mice (12+/+PWR500 [7 Male and 5 Female] and 12 WT [6 Male and 6 Female]) mice, age- and gender-matched and ranging in age from 18-22 weeks old were used in therapeutic efficacy studies (Table 6). Mice were anesthetized by intraperitoneal (i.p.) injection of 10 mg/mL Ketamine:1 mg/mL Xylazine solution. Intracerebroventricular (ICV) stereotactic injections of 10 μL of 7 (33 nmol) were administered into the right ventricle using the following coordinates: 0.2 mm posterior and 1.0 mm lateral to the right from the bregma and 3 mm deep. Mice were treated with 7 or vehicle consisting of 1% DMSO in Saline. Three weeks post-treatment, mice were euthanized, and tissue was harvested for study.
Fluorescence in situ Hybridization (FISH) with Immunofluorescence (IF). Tissues were excised, and brain tissue was sliced at the midline. The right hemisphere was fresh frozen with OCT in 2-methylbutane in liquid nitrogen, and 10 μm thick sections were prepared using a cryostat. The slides were then stained as previously described (36). […] Average number of foci per nuclei was assessed for each sample and reported. Statistical analysis was measured using an unpaired t-test with Welch's correction.

[4] = system: r(G4C2)exp-containing intron 1; assay: C9orf72 intron 1 RT-qPCR in c9ALS iPSC-derived spinal neurons; type: cell-based, human
Experimental: iPSCs were differentiated into spinal neuron cells using a previously the previously described direct induced motor neuron (diMNs) differentiation protocol (58) with modifications. Briefly, iPSCs were plated into Matrigel-coated 100 mm dishes (30-40% confluence). Neuroepithelial induction was performed by replacing the iPSC maintenance medium with Stage 1 medium [47.5% IMDM (Iscove's Modified Dulbecco's Medium) medium, 47.5% F12 medium, 1% NEAA (Non-Essential Amino Acid) (Life Technologies), 2% B27 (Invitrogen), 1% N2, 1% PSA (Penicillin-Streptomycin-Amphotericin), 0.2 μM LDN193189 (Stemgent), 10 μM SB431542 ([…] Technologies) and 3 μM CHIR99021 (Sigma-Aldrich)]. After daily medium changes for 6 days, cells were detached with Accutase and seeded into 6-well plates (1.5×10^6 cells/well) in 3 mL Stage 2 medium. Cells were maintained in Stage 2 medium [Stage 1 medium supplemented with 0.1 μM All-trans RA (Sigma-Aldrich) and 1 μM *SAG (Cayman Chemicals)], with daily changes, through Day 11. […]
Measuring Levels of C9orf72 and C9orf72 Variants by RT-qPCR. […] RNA was extracted as described above and the expression of C9orf72 variants was determined by RT-qPCR. […] RNA was extracted as described above and the expression of C9orf72 variants was determined by RT-qPCR.

SMILES	C9orf72 intron 1 levels [1]	C9orf72 intron 1 levels [2]	number of r(G4C2)exp-containing nuclear foci ([3]; brain)	abundance of antisense r(G2C4)exp foci [3]	reduction of r(G4C2)exp-containing intron 1 abundance ([4]; 50 nM) [%]	reduction of r(G4C2)exp-containing intron 1 abundance ([4]; 500 nM) [%]
Cc1c2ccncc2c(C)c2c1[nH]c1ccc(OCCOCCOCCNCCOCCOCCOc3ccc4[nH]c5c(C)c6ccncc6c(C)c5c4c3)cc12 [Compound 3]	no effect					
CCOC(=O)C1=C(Nc2ccccc2)S/C(=C\c2ccc(OCCOCCOCCOCCNC(=O)CCC(=O)N(CCOCCOCCOc3ccc4[nH]c5c(C)c6ccncc6c(C)c5c4c3)CCOCCOCCOc3ccc4[nH]c5c(C)c6ccncc6c(C)c5c4c3)c(O)c2)C1=O [Compound 7]		no effect	decreased	No effect	45±11	64±10
